Measured values: PMC12058161, “The plant matrix of Artemisia annua L. for the treatment of malaria: Pharmacodynamic and pharmacokinetic studies” (PLOS One, 2025)
Several values for one entry are separate records, joined by “and”; a condition that tells them apart may be missing. Identical values can stand only once.

Key:
[1] = Stability of the five compounds in SD rat plasma (QC samples, UHPLC-ESI-MS/MS); type: in vitro ADME; conditions: for stability, Accuracy (measured versus nominal concentration) / stability, mean ± SD (measured concentration): SD rat plasma, n=5
Description: The method was validated according to the US Food and Drug Administration (FDA) Bioanalytical Method Validation Guidance as follows: [1] specificity was assessed by analyzing blank plasma, blank plasma spiked with standard solutions and rat plasma samples after oral administration. Each calibration curve was plotted using the concentration of the standard solution as the horizontal coordinate and the ratio of analyte to internal standard peak area as the vertical coordinate. The lower limit of quantification (LLOQ) refers to the lowest concentration, which is typically 10 times the signal-to-noise ratio. It has an acceptable accuracy of ± 20% and a precision of less than 20% [3]. Quality Control (QC) samples (low, medium and high concentrations) were prepared for each analyte. Five samples were analyzed at each concentration level and three consecutive batches were determined to calculate the accuracy and precision of the method. Extraction recovery was assessed by the ratio of the average peak area of routinely prepared QC samples (low, medium, and high concentrations) to the post-extraction plasma sample. Likewise, matrix effect was assessed by the ratio of peak areas between post-extraction samples spiked with analytes and mobile phases spiked with the same concentration of analytes.

[2] = male, Sprague Dawley, rat, in vivo
in vivo = conditions: male, Sprague Dawley, rat, po, 352 mg/kg
Caco-2 cells = test: Cytotoxicity in Caco-2 cells, CCK-8 assay; type: cell-based, human; conditions: for Cell survival rate%: mean; for cck-8 mean (survival fraction): mean of 6
Description: Caco-2 cells were cultured in 96-well plates for 48 h at a seeding density of 5.0 × 10^3 cells/well before the addition of drugs. […] The final concentration of DMSO was 0.05% (v/v). Experiments were initiated by replacing the culture medium in each well with 100 μL of sample solutions at 37°C in the CO2 incubator. After 48 h of incubation, the medium was removed and 10 μL of CCK-8 reagent in the serum-free medium was added to each well. The plates were then incubated at 37°C for another 2 h. At the end of the incubation period, the plates were quantified by reading the absorbance at 450 nm on a micro-plate multi-detection instrument, SpectraMax iD3 with SoftMax® Pro (Molecular Devices Corporation Sunnyvale, CA, USA). The percentage of cell viability was calculated based on the absorbance measured relative to the absorbance of cells exposed to the negative control.

P-glycoprotein (P-gp) = biological target: T1, P-glycoprotein (P-gp) (Homo sapiens, UniProt P08183); test: Rhodamine 123 (P-gp substrate) transport across drug-treated Caco-2 cell monolayers; type: cell-based; conditions: co-incubated with R123, 10 μM, Caco-2 monolayer, Fig 6
T1 construct: The transport of R123 in normal Caco-2 cell monolayers or drug-treated Caco-2 cell monolayers was further studied; host or cells: Caco-2
T1 sequence (P08183 whole entry): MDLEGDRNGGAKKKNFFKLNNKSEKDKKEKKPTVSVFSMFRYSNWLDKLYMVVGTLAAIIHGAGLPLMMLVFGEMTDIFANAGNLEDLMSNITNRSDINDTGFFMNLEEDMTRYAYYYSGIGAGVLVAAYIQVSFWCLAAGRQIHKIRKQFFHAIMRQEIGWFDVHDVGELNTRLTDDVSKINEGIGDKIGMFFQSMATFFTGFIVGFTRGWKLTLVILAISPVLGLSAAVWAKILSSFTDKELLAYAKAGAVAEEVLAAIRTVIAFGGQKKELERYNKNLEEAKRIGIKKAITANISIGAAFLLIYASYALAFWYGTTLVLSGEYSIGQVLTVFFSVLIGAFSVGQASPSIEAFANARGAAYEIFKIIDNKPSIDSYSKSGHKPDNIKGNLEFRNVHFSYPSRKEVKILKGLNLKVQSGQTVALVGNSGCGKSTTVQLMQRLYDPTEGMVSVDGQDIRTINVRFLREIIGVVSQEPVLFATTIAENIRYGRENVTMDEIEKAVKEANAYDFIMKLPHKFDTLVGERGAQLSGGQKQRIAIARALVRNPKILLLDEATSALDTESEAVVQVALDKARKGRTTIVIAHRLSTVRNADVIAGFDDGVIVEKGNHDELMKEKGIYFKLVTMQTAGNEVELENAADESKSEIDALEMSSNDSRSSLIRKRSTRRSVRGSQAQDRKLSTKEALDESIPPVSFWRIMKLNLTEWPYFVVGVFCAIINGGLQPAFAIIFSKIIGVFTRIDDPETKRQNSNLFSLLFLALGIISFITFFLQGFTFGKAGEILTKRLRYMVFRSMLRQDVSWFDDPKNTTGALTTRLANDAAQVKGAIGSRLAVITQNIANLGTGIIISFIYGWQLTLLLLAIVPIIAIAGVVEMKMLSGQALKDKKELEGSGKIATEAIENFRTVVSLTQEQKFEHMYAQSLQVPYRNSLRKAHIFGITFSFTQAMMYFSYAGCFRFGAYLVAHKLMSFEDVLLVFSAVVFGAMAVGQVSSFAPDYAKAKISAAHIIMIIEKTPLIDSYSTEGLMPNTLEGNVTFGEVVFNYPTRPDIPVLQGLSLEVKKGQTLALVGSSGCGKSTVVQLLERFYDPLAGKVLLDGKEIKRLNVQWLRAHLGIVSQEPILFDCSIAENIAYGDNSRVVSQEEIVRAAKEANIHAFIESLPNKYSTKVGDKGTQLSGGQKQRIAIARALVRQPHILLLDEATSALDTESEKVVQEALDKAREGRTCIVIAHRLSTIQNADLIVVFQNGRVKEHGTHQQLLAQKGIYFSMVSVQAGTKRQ
Text: The human epithelial cell line Caco-2 serves as a widely recognized model for the intestinal epithelial barrier, frequently utilized in the assessment of drug absorption and transport mechanisms. In this study, we evaluated drug absorption and distribution in vitro with the help of the Caco-2 cell model. Caco-2 cells were purchased from the Chinese Academy of Medical Sciences (Beijing, China, Resource No. 3111C0001CCC000100). The cells were resuscitated and inserted into culture flasks. Caco-2 cells were passaged with DMEM high glucose medium containing 10% (V/V) FBS, 1% (V/V) non-essential amino acid solution and 100 U/mL penicillin-streptomycin double antibiotic solution, and cultured at 37°C in a 5% CO2 incubator. […] The integrity of the cell monolayer was checked by measuring the transmembrane electrical resistance (TEER) of the monolayer cells with a Millicell-ERS electrode (Millipore Corp., Billerica, MA, USA). Caco-2 cells were used for transport experiments 17–21 days after inoculation. Besides, only monolayers with TEER values above 400 Ω/cm^2 were used in the study.
The transport of R123 in normal Caco-2 cell monolayers or drug-treated Caco-2 cell monolayers was further studied. […] The transport buffer containing 5 μM of R123 was added on either the AP or the BL side of the inserts, as described above. […] The concentrations of R123 were immediately analyzed by SpectraMax iD3. The excitation wavelength was set at 485 nm, and the emission wavelength at 535 nm. Papp values across the cell monolayers were calculated according to the equation: Papp = dQ/dt × 1/(A × C0), where dQ/dt represents the rate of drug transport. […] The efflux ratio was calculated using the Papp (BL-AP) to Papp (AP-BL) ratio.

[3] = nominal 160 ng/mL, 3 freeze-thaw cycles
[4] = nominal 160 ng/mL, 7 days at -80°C
[5] = nominal 160 ng/mL, Room temperature 24h
[6] = nominal 1000 ng/mL, 3 freeze-thaw cycles
[7] = nominal 1000 ng/mL, 7 days at -80°C
[8] = nominal 1000 ng/mL, Room temperature 24h
[9] = nominal 5000 ng/mL, 3 freeze-thaw cycles
[10] = nominal 5000 ng/mL, 7 days at -80°C
[11] = nominal 5000 ng/mL, Room temperature 24h
[12] = Caco-2, concentration 10 μmol/L
[13] = Caco-2, concentration 20 μmol/L
[14] = Caco-2, concentration 40 μmol/L
[15] = Caco-2, concentration 80 μmol/L

- Stability, measured concentration, mean ± SD ([1]; QC sample 160 ng/mL, 3 freeze-thaw cycles): 161 ± 10.8 ng/mL and 160.872 ng/mL
- Stability, measured concentration, mean ± SD ([1]; QC sample 160 ng/mL, 7 days at -80°C): 149 ± 5.80 ng/mL and 149.16 ng/mL
- Stability, measured concentration, mean ± SD ([1]; QC sample 160 ng/mL, Room temperature 24h): 151 ± 5.81 ng/mL and 151.046 ng/mL
- Stability, measured concentration, mean ± SD ([1]; QC sample 1000 ng/mL, 3 freeze-thaw cycles): 914 ± 35.7 ng/mL and 914.334 ng/mL
- Stability, measured concentration, mean ± SD ([1]; QC sample 1000 ng/mL, 7 days at -80°C): 1064 ± 21.4 ng/mL and 1063.64 ng/mL
- Stability, measured concentration, mean ± SD ([1]; QC sample 1000 ng/mL, Room temperature 24h): 959.663 ng/mL and 960 ± 45.4 ng/mL
- Stability, measured concentration, mean ± SD ([1]; QC sample 5000 ng/mL, 3 freeze-thaw cycles): 4813 ± 108 ng/mL and 4813.44 ng/mL
- Stability, measured concentration, mean ± SD ([1]; QC sample 5000 ng/mL, 7 days at -80°C): 4814 ± 118 ng/mL and 4813.94 ng/mL
- Stability, measured concentration, mean ± SD ([1]; QC sample 5000 ng/mL, Room temperature 24h): 5079.03 ng/mL and 5079 ± 336 ng/mL
- stability, Accuracy (measured versus nominal concentration) [1, 3]: 100.54%
- stability, mean ± SD (measured concentration) [1, 3]: 161 ± 10.8 ng/mL
- stability, Accuracy (measured versus nominal concentration) [1, 4]: 93.23%
- stability, mean ± SD (measured concentration) [1, 4]: 149 ± 5.80 ng/mL
- stability, Accuracy (measured versus nominal concentration) [1, 5]: 94.40%
- stability, mean ± SD (measured concentration) [1, 5]: 151 ± 5.81 ng/mL
- stability, Accuracy (measured versus nominal concentration) [1, 6]: 91.43%
- stability, mean ± SD (measured concentration) [1, 6]: 914 ± 35.7 ng/mL
- stability, Accuracy (measured versus nominal concentration) [1, 7]: 106.36%
- stability, mean ± SD (measured concentration) [1, 7]: 1064 ± 21.4 ng/mL
- stability, Accuracy (measured versus nominal concentration) [1, 8]: 95.97%
- stability, mean ± SD (measured concentration) [1, 8]: 960 ± 45.4 ng/mL
- stability, Accuracy (measured versus nominal concentration) [1, 9]: 96.27%
- stability, mean ± SD (measured concentration) [1, 9]: 4813 ± 108 ng/mL
- stability, Accuracy (measured versus nominal concentration) [1, 10]: 96.28%
- stability, mean ± SD (measured concentration) [1, 10]: 4814 ± 118 ng/mL
- stability, Accuracy (measured versus nominal concentration) [1, 11]: 101.58%
- stability, mean ± SD (measured concentration) [1, 11]: 5079 ± 336 ng/mL
- CLz [2]: 24 mL/day/kg
- CL ([2]; po, 352 mg/kg): 0.001 ± 0.001 L/h
- Vz ([2]; po, 352 mg/kg): 0.005 ± 0.001 L
- AUC(0-inf) (in vivo): 29700 ± 6700 ng·h/mL
- AUC(0-t) (in vivo): 28700 ± 6660 ng·h/mL
- Cmax (in vivo; Cmax): 10400 ± 2440 ng/mL
- MRT inf (in vivo; MRT(0-∞)): 6.08 ± 1.27 h
- half-life (in vivo; t1/2): 4.64 ± 1.18 h
- half-life (in vivo; t1/2z): 3.97 h
- reduction of R123 transport from the BL side to the AP side (P-glycoprotein (P-gp)): 45.21%
Structure (SMILES): CC1=C[C@H]2[C@@H](CC1)[C@H](C)CC[C@H]2[C@@H](C)C(=O)O [DHAA, Dihydroartemisinic acid]
- Cell survival rate%, single replicate (Caco-2 cells; Caco-2, 5μmol/L): 84.02% and 84.22% and 87.64% and 85.87% and 89.84% and 87.8%
- Cell survival rate%, single replicate (Caco-2 cells; Caco-2, 10μmol/L): 84.68% and 88.84% and 86.58% and 89.08% and 86.49% and 80.21%
- Cell survival rate%, single replicate (Caco-2 cells; Caco-2, 20μmol/L): 84.63% and 81.53% and 85.05% and 89.44% and 83.52% and 78.29%
- Cell survival rate%, single replicate (Caco-2 cells; Caco-2, 40μmol/L): 84.99% and 84.53% and 82.56% and 83.98% and 80.6% and 81.3%
- Cell survival rate%, single replicate (Caco-2 cells; Caco-2, 80μmol/L): 80.04% and 80.37% and 80.83% and 80.86% and 80.51% and 80.11%
- cck-8 cell survival as fraction, single replicate (Caco-2 cells; Caco-2, concentration 5 μmol/L): 0.8402 and 0.8422 and 0.8764 and 0.8587 and 0.8984 and 0.878
- Cell survival rate% (Caco-2 cells; Caco-2, concentration 5 μmol/L): 86.56%
- cck-8 mean (survival fraction) (Caco-2 cells; Caco-2, concentration 5 μmol/L): 0.87
- cck-8 cell survival as fraction, single replicate (Caco-2 cells; [12]): 0.8468 and 0.8884 and 0.8658 and 0.8908 and 0.8649 and 0.8021
- Cell survival rate% (Caco-2 cells; [12]): 85.98%
- cck-8 mean (survival fraction) (Caco-2 cells; [12]): 0.86
- cck-8 cell survival as fraction, single replicate (Caco-2 cells; [13]): 0.8463 and 0.8153 and 0.8505 and 0.8944 and 0.8352 and 0.7829
- Cell survival rate% (Caco-2 cells; [13]): 83.74%
- cck-8 mean (survival fraction) (Caco-2 cells; [13]): 0.84
- cck-8 cell survival as fraction, single replicate (Caco-2 cells; [14]): 0.8499 and 0.8453 and 0.8256 and 0.8398 and 0.806 and 0.813
- Cell survival rate% (Caco-2 cells; [14]): 82.99%
- cck-8 mean (survival fraction) (Caco-2 cells; [14]): 0.83
- cck-8 cell survival as fraction, single replicate (Caco-2 cells; [15]): 0.8004 and 0.8037 and 0.8083 and 0.8086 and 0.8051 and 0.8011
- Cell survival rate% (Caco-2 cells; [15]): 80.45%
- cck-8 mean (survival fraction) (Caco-2 cells; [15]): 0.80
